Reference: ChEMBL document CHEMBL1201862, “PubChem BioAssay data set” (2004)
Active and inactive are the calls of the source.

Assays:
[1] = system: H9c2; test: cells; type: functional, cell-based; conditions: Rattus norvegicus, H9c2, Myocardium;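 further: confirmatory concentration-response retest of ultra-high-throughput screening hits for modulation of myocardial damage; cell death induced by hydrogen peroxide oxidative stress; compound pretreatment for 60 min then peroxide exposure for 2 h; potency is for protecting the cells against peroxide damage rather than for killing them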
[2] = DRD fibroblast viability loss – cell-based, non-viral oncogenic, luminescence, dose response (AID 1934); type: functional; conditions: Homo sapiens
[3] = system: BJ; test: cells; type: functional, cell-based; conditions: Homo sapiens
[4] = system: BJ; test: BJ-TERT fibroblast viability loss – cell-based, RAS-independent, luminescence, dose response (AID 1933); type: functional; conditions: Homo sapiens
[5] = system: BJ; test: BJ-TERT-LT-ST fibroblast viability loss – cell-based, RAS-independent, luminescence, dose response (AID 1935); type: functional; conditions: Homo sapiens;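 further: BJ fibroblasts immortalized with TERT plus LT and ST oncogenes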
[6] = biological target: T1, Leucine aminopeptidase (Plasmodium falciparum 3D7, UniProt Q8IL11); test: P. falciparum M17LAP inhibitors, primary screen, biochemical, fluorogenic H-Leu-NHMec substrate, 1536-well (AID 1619); type: functional
T1 sequence (Q8IL11 whole entry): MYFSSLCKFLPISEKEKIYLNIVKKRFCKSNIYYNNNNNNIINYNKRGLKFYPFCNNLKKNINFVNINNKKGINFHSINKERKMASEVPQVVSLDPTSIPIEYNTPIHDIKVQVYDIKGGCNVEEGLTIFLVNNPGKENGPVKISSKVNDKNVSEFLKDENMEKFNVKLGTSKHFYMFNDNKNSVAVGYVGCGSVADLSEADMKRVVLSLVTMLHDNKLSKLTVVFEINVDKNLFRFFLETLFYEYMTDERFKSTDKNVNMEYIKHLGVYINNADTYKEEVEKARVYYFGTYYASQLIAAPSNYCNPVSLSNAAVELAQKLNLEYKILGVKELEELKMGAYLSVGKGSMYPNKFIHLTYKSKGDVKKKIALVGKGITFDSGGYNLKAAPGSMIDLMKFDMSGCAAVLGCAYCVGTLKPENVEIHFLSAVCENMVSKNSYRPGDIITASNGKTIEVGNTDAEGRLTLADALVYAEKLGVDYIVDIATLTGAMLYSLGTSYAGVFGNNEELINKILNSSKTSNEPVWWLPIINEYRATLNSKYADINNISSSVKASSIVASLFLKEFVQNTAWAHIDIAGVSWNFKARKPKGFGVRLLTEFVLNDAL

[7] = Counterscreen for inhibitors of Trypanosoma brucei methionyl tRNA synthetase (MetRS): Luminescence-based cell-based high throughput dose response assay to identify compounds that are cytotoxic to Jurkat human T lymphocyte cells.; type: functional
[8] = biological target: Ras and Rab interactor 1/Tyrosine-protein kinase ABL1 (Homo sapiens, UniProt P00519+Q13671); type: functional;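 further: biochemical TR-FRET dose-response test measuring inhibition of binding between Rin1 and Abl proteins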
[9] = HEK-293T viability loss after treatment – luminescence, T-cell screen hits, cytotoxicity control for TCR NF-kB inhibitor project, dose response (AID 489026); type: functional, cell-based;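 further: cells exposed to compound about 14 hours before the viability readout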
[10] = non-specific 3'UTR reporter inhibition in Clone20-Shn3RL – cell-based, Renilla luciferase, cherry-picked, counter-screen for Shn3 inhibitor project, dose response (AID 624133); type: functional
[11] = reduction of Shn3 3'UTR-driven luciferase in osteoblasts – cell-based, Clone20 osteoblasts, firefly luciferase, cherry-picked, dose response (AID 624132); type: functional;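 further: firefly luciferase luminescence from reporter carrying the Shn3 3'UTR in osteoblasts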
[12] = loss of viability in HepG2 cells – cell-based, CellTiter-Glo, cherry-picked, cytotoxicity control for Shn3 inhibitor project, dose response (AID 624134); type: functional

Chain of Ras and Rab interactor 1/Tyrosine-protein kinase ABL1 (P00519 whole entry): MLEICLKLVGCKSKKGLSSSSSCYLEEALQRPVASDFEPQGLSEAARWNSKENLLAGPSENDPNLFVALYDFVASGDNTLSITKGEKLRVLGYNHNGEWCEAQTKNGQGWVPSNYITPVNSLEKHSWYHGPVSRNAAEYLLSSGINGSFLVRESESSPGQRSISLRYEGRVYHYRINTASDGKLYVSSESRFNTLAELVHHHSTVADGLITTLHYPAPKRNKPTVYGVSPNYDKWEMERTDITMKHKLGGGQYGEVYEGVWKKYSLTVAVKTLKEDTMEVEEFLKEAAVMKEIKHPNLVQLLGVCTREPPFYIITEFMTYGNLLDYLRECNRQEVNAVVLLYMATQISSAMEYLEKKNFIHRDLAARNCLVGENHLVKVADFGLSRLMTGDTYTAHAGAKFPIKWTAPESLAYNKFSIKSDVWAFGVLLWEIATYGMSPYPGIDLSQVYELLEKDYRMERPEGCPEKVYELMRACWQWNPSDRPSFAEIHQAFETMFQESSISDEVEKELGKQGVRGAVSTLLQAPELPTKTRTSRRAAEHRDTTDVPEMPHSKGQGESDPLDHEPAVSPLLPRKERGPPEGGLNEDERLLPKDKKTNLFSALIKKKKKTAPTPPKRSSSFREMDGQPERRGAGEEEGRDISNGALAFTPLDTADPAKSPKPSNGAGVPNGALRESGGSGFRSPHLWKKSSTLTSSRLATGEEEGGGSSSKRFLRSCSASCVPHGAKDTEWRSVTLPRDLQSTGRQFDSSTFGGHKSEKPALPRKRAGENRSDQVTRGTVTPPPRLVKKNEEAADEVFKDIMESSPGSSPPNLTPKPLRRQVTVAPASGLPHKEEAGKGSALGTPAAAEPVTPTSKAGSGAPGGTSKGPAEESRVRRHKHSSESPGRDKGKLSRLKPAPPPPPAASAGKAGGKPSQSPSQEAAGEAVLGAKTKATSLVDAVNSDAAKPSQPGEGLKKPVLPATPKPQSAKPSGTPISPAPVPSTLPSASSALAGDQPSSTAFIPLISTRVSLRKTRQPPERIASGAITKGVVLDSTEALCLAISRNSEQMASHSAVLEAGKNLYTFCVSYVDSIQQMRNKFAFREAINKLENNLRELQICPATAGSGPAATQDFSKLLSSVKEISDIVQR
Chain of Ras and Rab interactor 1/Tyrosine-protein kinase ABL1 (Q13671 whole entry): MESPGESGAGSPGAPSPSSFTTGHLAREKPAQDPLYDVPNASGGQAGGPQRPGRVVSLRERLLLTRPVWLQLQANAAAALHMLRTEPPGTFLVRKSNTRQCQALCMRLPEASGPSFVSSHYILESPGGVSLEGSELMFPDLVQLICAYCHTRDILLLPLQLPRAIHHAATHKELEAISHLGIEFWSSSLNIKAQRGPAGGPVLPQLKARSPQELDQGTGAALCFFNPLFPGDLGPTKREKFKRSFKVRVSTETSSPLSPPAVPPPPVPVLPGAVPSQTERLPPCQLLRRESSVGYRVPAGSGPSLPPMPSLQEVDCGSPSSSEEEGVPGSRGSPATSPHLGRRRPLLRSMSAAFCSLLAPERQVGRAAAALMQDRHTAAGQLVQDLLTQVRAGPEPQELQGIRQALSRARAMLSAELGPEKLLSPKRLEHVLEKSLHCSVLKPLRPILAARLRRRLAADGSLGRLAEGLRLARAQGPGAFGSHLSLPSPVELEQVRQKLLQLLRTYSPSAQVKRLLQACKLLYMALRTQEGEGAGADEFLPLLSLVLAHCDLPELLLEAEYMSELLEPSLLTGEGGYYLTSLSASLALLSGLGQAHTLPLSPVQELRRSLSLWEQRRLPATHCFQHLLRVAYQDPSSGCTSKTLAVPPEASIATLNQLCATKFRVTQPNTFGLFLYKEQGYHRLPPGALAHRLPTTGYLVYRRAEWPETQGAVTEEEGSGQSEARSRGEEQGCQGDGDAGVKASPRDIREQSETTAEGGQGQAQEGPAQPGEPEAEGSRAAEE

Question: For `COc1ccc(OC)c(C2CC(=O)c3c([nH]c(C(=O)OCC4CCCO4)c3C)C2)c1` (centres undefined), which IC50 [1] is on record?
Answer: 21.1 µM (active)

Question: Which results are given for `O=C(/C=C/c1ccco1)NC(=S)Nc1cccc(-c2nc3ccccc3o2)c1`?
Answer: EC50 [2]: 12.1 µM (inconclusive); EC50 [3]: 88.3 µM (active); EC50 [4]: 9.72 µM (active); EC50 [5]: 3.83 µM (active)

Question: Which IC50 [1] does the source give for `CC(=O)Nc1ccc2c(c1)nc(O)c1ccccc12` here?
Answer: 34 µM (inactive)

Question: Which results are given for `CCc1ccc(C(=O)C(C)OC(=O)Cc2nnc(O)c3ccccc23)cc1` (centres undefined)?
Answer: EC50 [2]: 17.9 µM (active); EC50 [3]: 49.9 µM (inconclusive); EC50 [4]: 18.2 µM (active); EC50 [5]: > 150 µM (inconclusive)

Question: With `O=C(O)C1CCCCC1C(=O)Nc1cc(C(F)(F)F)ccc1Cl` (centres undefined) as the compound, how does the IC50 [6] read?
Answer: 17.5 µM (active)

Question: Which IC50 [7] does the source give for `NS(=O)(=O)c1ccc(CCNC(=O)c2cc(-c3cc(Cl)ccc3O)[nH]n2)cc1` here?
Answer: 43.3 µM (inactive)

Question: For `CCN(CC)C(=O)CSc1nc(Cc2ccccc2)nc2ccccc12`, which IC50 [8] is on record?
Answer: > 73.4 µM (inactive)

Question: Which IC50 [6] does the source give for `CC(C)(C)C1CCc2c(C(=O)NNC(=O)CCC(=O)O)csc2C1` (centres undefined) here?
Answer: 14.5 µM (active)

Question: Which IC50 [1] does the source give for `CC(=O)Nc1cccc(NC(=O)c2cc(-c3cccnc3)nc3ccc(Br)cc23)c1` here?
Answer: 37.9 µM (inactive)

Question: Which IC50 [8] does the source give for `OCCNc1ncnc2c1ncn2[C@H]1CN(Cc2ccc(-c3ccccc3)cc2)C[C@@H](CO)O1` here?
Answer: 12.6 µM (inactive)

Question: With `COc1cc(NS(=O)(=O)c2ccc(OC)c(C)c2C)c(OC)cc1Cl` as the compound, how does the IC50 [9] read?
Answer: > 80 µM (inactive)

Question: With `COc1ccc(/C=C/C(=O)c2ccc(C(=O)/C=C/c3ccc(OC)c(OC)c3)cc2)cc1OC` as the compound, how does the AC50 [10] read?
Answer: 25.9 µM (active)

Question: What about the AC50 [11] of the same compound?
Answer: 5.18 µM (active)

Question: What about the AC50 [12] of the same compound?
Answer: 69.1 µM (active)

Question: And the EC50 [2]?
Answer: 10.4 µM (active)

Question: What about the EC50 [3] of the same compound?
Answer: 27 µM (active)

Question: What about the EC50 [4] of the same compound?
Answer: 7.92 µM (active)

Question: What about the EC50 [5] of the same compound?
Answer: 10.7 µM (inconclusive)
